Laboratory results: paper PMC8645336, “Benchmarking a highly selective USP30 inhibitor for enhancement of mitophagy and pexophagy” (Life Science Alliance, 2021)

Key:
Assay in all cases: biochemical
Parameters in all cases: Ubiquigent DUB profiler selectivity panel, remaining enzyme activity as % of control
Conditions in all cases: read-out: % of control remaining
[1] = target: JOSD1 (Homo sapiens, UniProt Q15040)
Procedure, shortened: (§1)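 CMPD-39 selectivity was profiled at 1-100 μM across >40 DUBs. Cellular engagement used 2 h CMPD-39 pretreatment, then HA-Ub-PA probe for 10 min at 37°C, with USP30 band shift on immunoblot. TOMM20 ubiquitylation was blotted in YFP-PRKN hTERT-RPE1 cells after 1 h antimycin A/oligomycin A (1 μM each).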

[2] = target: T1, OTUD1 (Homo sapiens, UniProt Q5VV17)
T1 sequence (Q5VV17 1-481): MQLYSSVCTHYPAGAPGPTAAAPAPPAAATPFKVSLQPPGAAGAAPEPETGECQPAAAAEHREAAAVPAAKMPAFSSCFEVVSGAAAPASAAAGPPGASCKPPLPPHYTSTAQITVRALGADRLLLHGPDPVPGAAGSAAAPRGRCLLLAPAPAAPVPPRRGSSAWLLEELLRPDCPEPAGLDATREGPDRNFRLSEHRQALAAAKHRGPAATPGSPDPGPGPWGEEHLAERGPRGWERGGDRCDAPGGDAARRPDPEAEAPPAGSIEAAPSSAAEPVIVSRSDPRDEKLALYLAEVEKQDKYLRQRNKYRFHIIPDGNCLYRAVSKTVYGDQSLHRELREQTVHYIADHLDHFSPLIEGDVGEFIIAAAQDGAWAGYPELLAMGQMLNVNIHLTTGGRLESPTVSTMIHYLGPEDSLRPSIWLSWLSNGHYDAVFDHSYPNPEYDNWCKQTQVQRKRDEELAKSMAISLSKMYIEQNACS
Procedure, shortened: as §1

[3] = target: T2, USP35** (Homo sapiens, UniProt Q9P2H5)
T2 sequence (Q9P2H5 1-1018): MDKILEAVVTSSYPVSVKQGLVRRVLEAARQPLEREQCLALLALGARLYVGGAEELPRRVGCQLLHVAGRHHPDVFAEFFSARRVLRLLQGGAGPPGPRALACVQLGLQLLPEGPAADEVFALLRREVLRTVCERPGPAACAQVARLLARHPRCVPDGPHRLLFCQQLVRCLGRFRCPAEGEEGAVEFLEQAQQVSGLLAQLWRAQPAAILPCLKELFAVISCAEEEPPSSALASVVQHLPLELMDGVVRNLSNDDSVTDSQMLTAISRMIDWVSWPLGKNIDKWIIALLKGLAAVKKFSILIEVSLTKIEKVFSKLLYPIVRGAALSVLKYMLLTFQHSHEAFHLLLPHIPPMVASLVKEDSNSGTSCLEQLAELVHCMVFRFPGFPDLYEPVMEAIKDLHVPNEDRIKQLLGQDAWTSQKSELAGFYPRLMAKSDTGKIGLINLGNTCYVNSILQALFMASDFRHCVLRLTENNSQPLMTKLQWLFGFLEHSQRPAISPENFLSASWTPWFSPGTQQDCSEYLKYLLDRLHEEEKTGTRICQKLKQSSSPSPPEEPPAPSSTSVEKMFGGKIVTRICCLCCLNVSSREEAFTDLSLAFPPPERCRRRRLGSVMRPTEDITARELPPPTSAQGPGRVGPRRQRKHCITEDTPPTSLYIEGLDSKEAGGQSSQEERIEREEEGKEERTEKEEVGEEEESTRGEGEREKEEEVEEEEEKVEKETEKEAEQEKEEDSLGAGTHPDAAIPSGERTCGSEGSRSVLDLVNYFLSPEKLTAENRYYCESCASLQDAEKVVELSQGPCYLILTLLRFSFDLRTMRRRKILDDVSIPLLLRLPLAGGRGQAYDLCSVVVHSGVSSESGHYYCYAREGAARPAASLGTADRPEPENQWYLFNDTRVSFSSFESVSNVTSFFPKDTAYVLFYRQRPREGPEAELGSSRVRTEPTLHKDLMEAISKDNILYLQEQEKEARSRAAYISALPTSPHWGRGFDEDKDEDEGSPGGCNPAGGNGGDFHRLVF
Procedure, shortened: as §1

remaining activity at 1 µM [1]: 98.1% | remaining activity at 10 µM [1]: 99.6% | remaining activity at 100 µM [1]: 103% | remaining activity at 1 µM [2]: 99.9% | remaining activity at 10 µM [2]: 93.4% | remaining activity at 100 µM [2]: 98% | remaining activity at 1 µM [3]: 113% | remaining activity at 10 µM [3]: 101% | remaining activity at 100 µM [3]: 102%
Compound: CC(C)(C)NS(=O)(=O)c1ccc(NC(=O)[C@H](Cc2ccccc2)NC(=O)c2ccc(F)cc2)cc1 [compound 39, CMPD-39]
